Where a name gives a salt, the structure may show the parent alone.

For one assay, the target named is T1, recombinant Human CYP17 enzyme (17-20 lyase) (Homo sapiens, UniProt P05093).
T1 construct: made in house; host or cells: A549 cells, adenoviral expression system; purified cell membrane preparations
T1 sequence (P05093 1-508): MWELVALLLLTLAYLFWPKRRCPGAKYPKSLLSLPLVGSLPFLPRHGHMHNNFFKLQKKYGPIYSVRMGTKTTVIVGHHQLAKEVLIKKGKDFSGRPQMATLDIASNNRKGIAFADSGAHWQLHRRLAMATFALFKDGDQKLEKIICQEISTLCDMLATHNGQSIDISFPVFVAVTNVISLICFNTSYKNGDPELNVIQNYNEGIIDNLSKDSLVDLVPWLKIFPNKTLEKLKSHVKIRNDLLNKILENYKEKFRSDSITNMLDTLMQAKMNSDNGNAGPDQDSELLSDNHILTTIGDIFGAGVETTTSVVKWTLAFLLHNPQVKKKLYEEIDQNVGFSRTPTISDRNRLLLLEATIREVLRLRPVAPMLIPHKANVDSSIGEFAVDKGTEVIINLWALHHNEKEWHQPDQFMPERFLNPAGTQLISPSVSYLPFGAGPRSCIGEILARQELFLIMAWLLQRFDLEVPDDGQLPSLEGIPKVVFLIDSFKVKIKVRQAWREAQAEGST
The assay can be described thus: Cytochrome P450, 17-20 lyase (CYP17-lyase) assay, 17-α-hydroxy pregnenolone [21-3H] as substrate. The assay is classed as biochemical.
Details: not given
The text has this:
1) Cytochrome P450, 17-20 Lyase (CYP17-Lyase) Assay Development Using Recombinant Human CYP17 Enzyme and 17-α-Hydroxy Pregnenolone [21-3H] as the Substrate.
Cytochrome P450, 17-α-Hydroxylase, 17-20 lyase (CYP17) is a multi functional enzyme that plays a key role in the biosynthesis of steroid hormones. It catalyses both conventional hydroxylation and also the carbon-carbon bond cleavage reactions (Peter Lee-Robichaud et al, Biochem. J, (1997) 321, 857-63). In the hydroxylation reaction, it converts progesterone and pregnenolone to the corresponding hydroxylated products 17-α-hydroxy progesterone and 17-α-hydroxy pregnenolone. In the lyase reaction, it catalyzes the conversion of these hydroxylated substrates to Androstenedione and Dehydroepiandrosterone (DHEA) respectively. In the Cyp17 lyase assay described here, the conversion of 17-α-hydroxy pregnenolone to Dehydroepiandrosterone and acetic acid is being monitored.
Assay method was adopted from a published protocol with some modifications to suit our requirements (Dmitry N Grigoryev et al, Analytical Biochemistry, (1999) 267, 319-330). The conversion of 17-α-hydroxy pregnenolone to Dehydroepiandrosterone is accompanied by the release of acetic acid. In the Cyp17 lyase assay, 17-α-hydroxy pregnenolone labeled with tritium (3H) at position 21 is used as the substrate. Chloroform extraction removes the radioactive steroids and acetic acid is taken into aqueous layer. The tritiated acetic acid released in the assay thus extracted is quantified to determine the enzyme activity.
Initial buffer conditions were, 50 mM Phosphate buffer, pH 7.5 was used as the starting buffer for Cyp17 lyase activity based on the data published in US patent publication No. US2004/0198773 A1. […] Human Cyp 17 gene was cloned and expressed in Adenoviral expression system in A549 cell lines. The purified cell membrane preparations were used as the source for Human CYP17 enzyme. Total protein concentration: 8 mg/mL.
For routine screening, the assay was set up with 16 μg of enzyme in 50 μL reaction volume. 17α-hydroxy pregnenolone [21-3H] was added to a final concentration of 0.25 μM. NADPH is used at a final concentration of 4.2 mM. Total reaction volume was made up to 50 μL with 50 mM Phosphate buffer pH 7.5. The reaction mixture was incubated at room temperature for 90 minutes with gentle shaking. The reaction was stopped by the addition of 100 μL of buffer. 500 μL of 5% freshly prepared activated charcoal was added to the solution and mixed well by vortexing. The samples were centrifuged at 17568×g for 5 minutes. (14000 rpm). The supernatant was carefully transferred to fresh tube and 1.3 mL of scintillation fluid was added, mixed by vortexing.
The radioactivity was measured in a 1450 MicroBeta TriLux™ scintillation counter from Wallac-Perkin Elmer®, USA. The measurements were carried out in 2.0 mL Eppendorf™ tubes. Each tube was counted for 1 minute. The amount of tritiated acetic acid released is proportional to the lyase activity. Percent lyase activity in presence of inhibitor was calculated using the formula given below.
[formula] • Sample: Enzyme reaction in presence of inhibitor. • Positive control: Enzyme reaction without inhibitor but containing DMSO at 1% final concentration. • Blank—Contains all reagents except enzyme. • % Inhibition=100%−% Lyase activity
For IC50 determination, the % inhibition was plotted as a function of inhibitor concentration. The data was fitted to sigmoidal equation using Graphpad Prism® software IV to generate IC50 values.
With `CCn1c2c(c3cc(F)ccc31)C(=O)N(c1cnccc1C)CC2` [Example 59A, 5-ethyl-8-fluoro-2-(4-methylpyridin-3-yl)-2,3,4,5-tetrahydro-1H-pyrido[4,3-b]indol-1-one], the IC50 was 29 nM.

The same assay, now with this note: at 10 μM; read-out: hCYP17 Lyase % Inh.
Take `Cc1ccncc1N1CCc2ccc(Oc3ncc(F)cn3)cc2C1=O` [Example 37A, 7-(5-fluoropyrimidin-2-yloxy)-2-(4-methylpyridin-3-yl)-3,4-dihydroisoquinolin-1(2H)-one]: the inhibition at 10 µM is 63%. The same measure, in the same setting: to `Cc1ccncc1N1CCc2ccc(F)c(NCC3CC3)c2C1=O` [Example 39A, 8-(cyclopropylmethylamino)-7-fluoro-2-(4-methylpyridin-3-yl)-3,4-dihydroisoquinolin-1(2H)-one, acetate salt] belongs 76%; to `COc1cc2c(cc1OC)C(=O)N(c1cnccc1C)CC2` [Example 40A, 6,7-Dimethoxy-2-(4-methyl-pyridin-3-yl)-3,4-dihydro-2H-isoquinolin-1-one], 12%. Take `Cc1ccncc1N1CCc2cc(Cl)c(Cl)cc2C1=O` [Example 41A, 6,7-dichloro-2-(4-methylpyridin-3-yl)-3,4-dihydroisoquinolin-1 (2H)-one]: the inhibition at 10 µM was determined as 10%.

For the compound `COc1ccc(F)c2c1C(=O)N(c1cnccc1C)CC2` [Example 44A, 5-fluoro-8-methoxy-2-(4-methylpyridin-3-yl) 3,4-dihydroisoquinolin-1(2H)-one], the inhibition at 10 µM stood at 8%.

The assay is the same for the next values; noted with them: human CYP17 lyase; substrate 0.25 μM; room temperature, 90 minutes; read-out: Lyase IC 50 nM Human.
On to `Cc1ccncc1N1CCc2ccc(OCC3CC3)cc2C1=O` [Example 31A, 7-(cyclopropylmethoxy)-2-(4-methylpyridin-3-yl)-3,4-dihydroisoquinolin-1 (2H)-one], for which the IC50 is 727 nM. As to `Cc1ccncc1N1CCc2ccc(C#N)cc2C1=O` [Example 32A, 2-(4-methylpyridin-3-yl)-1-oxo-1,2,3,4-tetrahydroisoquinoline-7-carbonitrile], the IC50 came to 301 nM.

With `Cc1ccncc1N1CCc2ccc(Cl)c(F)c2C1=O` [Example 33A, 7-chloro-8-fluoro-2-(4-methylpyridin-3-yl)-3,4-dihydroisoquinolin-1(2H)-one], the IC50 turned out to be 13 nM. For `Cc1ccncc1N1CCc2ccc(F)c(Cl)c2C1=O` [Example 34A, 8-chloro-7-fluoro-2-(4-methylpyridin-3-yl)-3,4-dihydroisoquinolin-1(2H)-one], the IC50 stood at 149 nM. On the same count and under the same terms, next, `O=c1c2cc(C(F)(F)F)ccc2ccn1-c1cccnc1` [Example 36A, 2-(pyridin-3-yl)-7-(trifluoromethyl)isoquinolin-1(2H)-one]: 54 nM; `CCn1c2c(c3ccccc31)CCN(c1cnccc1C)C2=O` [Example 38A, 9-ethyl-2-(4-methylpyridin-3-yl)-2,3,4,9-tetrahydro-1H-pyrido[3,4-b]indol-1-one]: 23 nM. For `CCn1c2c(c3ccccc31)CC(C)N(c1cccnc1)C2=O` (centres unmarked) [Example 42A, 9-ethyl-3-methyl-2-(pyridin-3-yl)-2,3,4,9-tetrahydro-1H-pyrido[3,4-b]indol-1-one], the IC50 is 55 nM. Still for that read-out and setting: to `CC1Cc2ccc(C(F)(F)F)cc2C(=O)N1c1cccnc1` (centres unmarked) [Example 43A, 3-Methyl-2-pyridin-3-yl-7-trifluoromethyl-3,4-dihydro-2H-isoquinolin-1-one] belongs 15 nM; to `Cc1ccncc1N1CCc2c(sc3ccc(F)cc23)C1=O` [Example 45A, 6-Fluoro-2-(4-methyl-pyridin-3-yl)-3,4-dihydro-2H-benzo[4,5]thieno[2,3-c]pyridin-1-one], 211 nM; to `CCn1c2c(c3ccccc31)CC(C)N(c1cnccc1C)C2=O` (centres unmarked) [Example 46A, 9-Ethyl-3-methyl-2-(4-methyl-pyridin-3-yl)-2,3,4,9-tetrahydro-b-carbolin-1-one], 44 nM. For `Cc1ccncc1N1CCc2ccc(C(F)(F)F)c(F)c2C1=O` [Example 47A, 8-Fluoro-2-(4-methyl-pyridin-3-yl)-7-trifluoromethyl-3,4-dihydro-2H-isoquinolin-1-one], the IC50 is 12 nM.

Consider `Cc1ccncc1N1C(=O)c2cc(C(F)(F)F)ccc2CC1C` (centres unmarked) [Example 48A, 3-Methyl-2-(4-methyl-pyridin-3-yl)-7-trifluoromethyl-3,4-dihydro-2H-isoquinolin-1-one], for which the IC50 turned out to be 16 nM. Same read-out and setting: next, `Cc1ccncc1N1CCc2cc(F)c(F)cc2C1=O` [Example 49A, 6,7-difluoro-2-(4-methylpyridin-3-yl)-3,4-dihydroisoquinolin-1(2H)-one]: 159 nM; `Cc1ccncc1N1CCc2sc3ccc(F)cc3c2C1=O` [Example 50A, 8-Fluoro-2-(4-methylpyridin-3-yl)-3,4-dihydrobenzo[4,5]thieno[3,2-c]pyridin-1(2H)-one]: 6 nM; `Cc1ccncc1N1CCc2ccc(OC(F)(F)F)cc2C1=O` [Example 51A, 2-(4-Methylpyridin-3-yl)-7-(trifluoromethoxy)-3,4-dihydroisoquinolin-1(2H)-one]: 22 nM. On the same count and under the same terms, next, `O=C1c2cc(C(F)(F)F)ccc2CCN1c1cnccc1CN1CCCC1` [Example 52A, 2-(4-(Pyrrolidin-1-ylmethyl)pyridin-3-yl)-7-(trifluoromethyl)-3,4-dihydroisoquinolin-1(2H)-one]: 556 nM; `O=C1c2cc(C(F)(F)F)ccc2CCN1c1cnccc1CNC1CC1` [Example 53A, 2-(4-((cyclopropylamino)methyl)pyridin-3-yl)-7-(trifluoromethyl)-3,4-dihydroisoquinolin-1(2H)-one]: 50 nM. On the same count and under the same terms, to `Cn1cncc1N1CCc2ccc(C(F)(F)F)cc2C1=O` [Example 54A, 2-(1-methyl-1H-imidazol-5-yl)-7-(trifluoromethyl)-3,4-dihydroisoquinolin-1(2H)-one] belongs 19 nM. In the case of `O=C1c2cc(Cl)c(Cl)cc2CCN1c1cnccc1C(F)(F)F` [Example 55A, 6,7-dichloro-2-(4-(trifluoromethyl)pyridin-3-yl)-3,4-dihydroisoquinolin-1(2H)-one], the IC50 came to 125 nM. Still for that read-out and setting: to `O=C1c2ccc(C(F)(F)F)cc2CCN1c1cncc(F)c1` [Example 56A, 2-(5-fluoropyridin-3-yl)-6-(trifluoromethyl)-3,4-dihydroisoquinolin-(2H)-one] belongs 1110 nM; to `O=C1c2c(sc3ccc(F)cc23)CCN1c1cnccc1C(F)(F)F` [Example 57A, 8-Fluoro-2-(4-trifluoromethylpyridine-3-yl)-3,4-dihydro-2H-benzo[4,5]thieno[3,2-c]pyridin-1-one], 548 nM. Same read-out and setting: next, `O=C1c2c(sc3ccccc23)CCN1c1cnccc1C(F)(F)F` [Example 58A, 2-(4-trifluoromethylpyridine-3-yl)-3,4-dihydro-2H-benzo[4,5]thieno[3,2-c]pyridin-1-one]: 218 nM; `Cc1ccncc1N1CCc2[nH]c3ccc(F)cc3c2C1=O` [Example 60A, 8-fluoro-2-(4-methylpyridin-3-yl)-2,3,4,5-tetrahydro-1H-pyrido[4,3-b]indol-1-one]: 9 nM.

Source of the values: patent publication US8946260B2, “17α-hydroxylase/C17,20-lyase inhibitors” (Novartis AG, priority 2010, dated 2015).
